Where “and” joins values, the source holds several entries; their conditions need not be identical. Identical values can stand only once. Like-named read-outs stand apart in the source and are kept apart here.
How the values were obtained:
HEG1-KRIT1 PPI [1] = target: T1, HEG1-KRIT1 PPI (Homo sapiens, UniProt O00522); experiment: HEG1-KRIT1 PPI fluorescence polarization (FP) time-resolved assay; type: biochemical; conditions: for IC50: fluorescence polarization assay after 4 h of incubation; for IC50 / HEG1-KRIT1 PPI Assay kon / koff / Ki: means ± SD, n = 3; for HEG1-KRIT1 PPI Assay kon / koff: global fit across six or more inhibitor concentrations; for Ki: global fit, unit in Figure 2E, read-out: HEG1-KRIT1 PPI Assay Ki (koff/kon)
T1 construct: a recombinant FERM domain (residues 417–736) of KRIT1; made in house; host or cells: E. coli
Experimental: To evaluate the binding kinetics of HNA inhibitors, a fluorescence polarization (FP) time-resolved assay that uses a recombinant FERM domain (residues 417–736) of KRIT1 and a fluorescence-tagged HEG1 cytoplasmic tail (Cy5-HEG1 7-mer peptide) was developed (Supporting Information). Using HNA as a test compound, the FP data, expressed as millipolarization (mP) units, were obtained every 10 min over the course of 4–7 h. […] Thus, for practical purposes, a 4-h incubation time was established as the standard assay time for non-kinetic IC50 evaluations.
Fluorescence Polarization Assay and Optimization
The KRIT1 FERM domain (residues 417-736) was cloned into plasmid and recombinantly expressed in E. coli as previously described,1 while the Cy5-HEG1 7- mer peptide bearing the Cy5 dye as fluorescent probe was prepared by and purchased from GenScript (New Jersey, US). HEPES- buffered saline (HBS) buffer was supplemented (0.01%) with detergent Triton X -100 to minimize protein adsorption to the microplate. The assay was setup in a 96-well plate plated with 80 nM KRIT1, 4 nM Cy5- HEG1 probe, and either non-tagged HEG1 peptide or HNA as inhibitor (in 5% DMSO). To account for background fluorescence that could interfere with the assay, background wells with only test compound and Cy5 -HEG1 probe (no KRIT1) were also plated. The FP data, expressed as millipolarization (mP) units, were obtained […]
course of 4-7 hours (for kinetic characterization) using a Tecan Spark® Multimode Microplate Reader. The background mP (no KRIT1) was subtracted from mP to account for background fluorescence. All assays were done in triplicates.
Several FP assay conditions were optimized. First, the HEG1 probe engagement of KRIT1 was examined and its interaction was determined to be rapid equilibrium, thus any observed time dependance in response when an inhibitor displaces the probe is the result of inhibitor exchange kinetics and not that of the probe. Next, the affinity of KRIT1 for the probe (Kd) was examined by following the change in polarization signal as a function of a matrix of five probe concentrations and four KRIT1 concentrations (Figure S1B ). A global fit of equation 3 to polarization responses of the inhibitor vs KRIT1 concentration […]
even after 7 hours of incubation. For practical purposes, we have chosen 4 hours as our standard incubation time since it appeared that most of the inhibition has been reached at this time point. The kinetic characterization of HNA as a HEG1- KRIT1 inhibitor will be discussed in greater detail in the kinetic section […]
values to those obtained from the flow cytometry assay. Finally, to assess the robustness of the FP assay, […]
a robust assay) representing an excellent assay with clear differences between positive and negative controls.2 Evaluation of HEG1-KRIT1 inhibitors prior to the optimization of the FP assay were done using flow cytometry, while subsequent compounds were evaluated using the FP assay. All subsequent assay plates included HNA as comparison and control.
Figure S1. Optimization of fluorescence polarization (FP) assay.
HEG1-KRIT1 inhibition. (B) Optimization of KRIT1 protein and Cy5 -HEG1 probe concentrations. Dose-response curve of HNA obtained via fluorescence polarization (C) and flow cytometry (D) assays show […]
All assays were tested in technical duplicates or triplicates in at least 2 different

[2] = pKa by potentiometric titration (Sirius T3); type: physicochemical; conditions: potentiometric titrations, means ± SD of three titrations
[3] = HEK293 cytotoxicity, resazurin cell viability assay; type: cell-based; conditions: human, HEK293 cells, means ± SD, n = 3
Experimental: Maintenance of HEK293 Cells. HEK293 cell lines (American Type Culture Collection (ATCC)) were cultured in Dulbecco's Modified Eagle Medium (DMEM, Invitrogen) supplemented with 10% heat-inactivated fetal bovine serum (FBS, Gibco) and penicillin-streptomycin (1%). Cells were kept at 37 °C and 5% CO2, and were passaged every 72 hours.
Resazurin Cell Viability Assay. The cytotoxicity in HEK293 cells were determined using a resazurin cell viability assay. Test compounds in DMSO were diluted to 100x desired final assay concentration (maximum concentration of 100 µM) in eight-point dose response. 1 µL of test compounds were plated in a 96-well clear bottom tissue culture microplate. 49 µL of cell culture media was added to each well. Cells were diluted to 4 x 10^5 cells/mL, and 50 µL of this cell suspension was seeded to each well for a total of 2 x 10^4 cells/well. The assay plate was kept at 37 °C and 5% CO 2 for either 4 or 48 hours. At the end of the incubation time, 20 µL of 0.5 mM resazurin sodium salt (Alfa Aesar) solution in PBS was added to each well. The assay plates were incubated further at 37 °C for 2 hours. Fluorescence was measured at 531 nm and 595 nm excitation and emission wavelengths, respectively, using a 2104 EnVision® multilabel plate reader. CC50 values were obtained using sigmoidal curved generated with Prism GraphPad (San Diego, CA). SD values are reported as the standard deviation of the CC50 values of 3 biological replicates. All

HEG1-KRIT1 PPI [4] = conditions: cited from earlier work
KLF2 [5] = test system: KLF2; set-up: method as in PMID 33977234; conditions: HUVECs, 24 h of incubation; cited from earlier work
KLF4 [6] = test system: KLF4; set-up: method as in PMID 33977234; conditions: HUVECs, 24 h of incubation; cited from earlier work
KLF2 [7] = experiment: KLF2 gene expression in HUVECs (RT-qPCR); type: cell-based, Human; conditions: HUVEC, 4-h incubation, relative to inactive control (2-hydroxy-1-naphthoic acid), 10-50 µM
Experimental: (§1) Finally, to confirm target engagement in cell-based conditions, selected HNA derivatives (i.e., 2, 3, and 5) were tested in a functional assay that specifically looks at the downstream effects of inhibiting the interaction between HEG1 and KRIT1, using qPCR. […] Here, the ability of compound 2 and HNA derivatives 3 and 5 to upregulate the same transcription factors in HUVEC after 4 h was measured.
(§2) PCR experiments in endothelial cells
(§3) Cell Culture. Human umbilical vein endothelial cells (HUVECs, Lonza) from passages 5 to 7 were grown on fibronectin‐coated 6-well plates (Corning) in complete EGM‐2 media (Lonza). HNA compounds 2, 3 and 5 were used from stocks of 10 mM in DMSO, which were placed on a rotating block at room temperature for 30 min before being diluted for use in cell culture. Compounds were used at the concentrations indicated (10-50µM) in HUVEC medium and added to cell culture wells for 4 hours. Control cells were treated with the same concentration of either DMSO (vehicle) or the non-active compound V for the same duration. Cells were maintained in a humidified incubator at 37°C and 5% CO2.
(§4) RT-qPCR. HUVECs (Lonza) using TRIzol reagent (Thermo Fisher Scientific) and the Quick-RNA MiniPrep Kit (Zymo Research) according to the manufacturer’s instructions. cDNA was transcribed from a total of 1 µg RNA per sample using qScript™ cDNA SuperMix (QuantaBio) according to the manufacturer’s protocol. KAPA SYBR FAST qPCR master mix (Roche) was used on a CFX Connect Real-Time PCR Detection System (BioRad) to determine the relative levels of human gene trascripts. The following primer sets were used: KLF2 (forward) AGACCACGATCCTCCTTGA and (reverse) […]
(§5) […]; KLF4, (forward) […] and (reverse)
(§6) ; and GAPDH (forward) […] and
(§7) (reverse) […] used as internal control. The 2−ΔΔCT method was used to analyze relative changes between vehicle control and test compounds for each data set.

KLF4 [8] = experiment: KLF4 gene expression in HUVECs (RT-qPCR); type: cell-based, Human; conditions: HUVEC, 4-h incubation, relative to inactive control (2-hydroxy-1-naphthoic acid), 10-50 µM
Experimental: as §1, §2, §3, §4, §5, §6, §7

T1 sequence (O00522 417-736): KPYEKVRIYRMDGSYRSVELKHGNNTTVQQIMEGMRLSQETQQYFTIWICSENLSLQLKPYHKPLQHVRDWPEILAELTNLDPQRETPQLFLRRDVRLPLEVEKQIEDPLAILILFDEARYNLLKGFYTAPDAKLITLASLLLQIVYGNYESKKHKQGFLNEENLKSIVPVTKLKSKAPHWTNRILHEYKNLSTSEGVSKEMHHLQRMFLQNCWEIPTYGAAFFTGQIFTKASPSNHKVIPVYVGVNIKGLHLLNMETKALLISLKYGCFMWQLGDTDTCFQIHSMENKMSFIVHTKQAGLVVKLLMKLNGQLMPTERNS

Row | SMILES | difference in affinity, KRIT1 (FP assay) vs N-α-acetyl lysine (HEG1-KRIT1 PPI [1]; Ki for KRIT1 vs Kd for N-α-acetyl lysine) | IC50 (HEG1-KRIT1 PPI [1]) | inhibition of HEG1-KRIT1 PPI upon co-incubation with free lysine (HEG1-KRIT1 PPI [1]; free lysine 50 μM in the assay buffer) | HEG1-KRIT1 PPI Assay kon (HEG1-KRIT1 PPI [1]) | koff (HEG1-KRIT1 PPI [1]) | HEG1-KRIT1 PPI Assay kon (HEG1-KRIT1 PPI [1]; listed as HNA) | Ki (HEG1-KRIT1 PPI [1]) | pKa [2] | CC50 at 48 h [3] | IC50 (HEG1-KRIT1 PPI [4]; previously reported data, read-out: HEG1-KRIT1 IC50, flow cytometry assay) | KLF2 expression (KLF2 [5]) | KLF4 expression (KLF4 [6]) | KLF2 mRNA expression (KLF2 [7]) | KLF4 mRNA expression (KLF4 [8]) | IC50 (HEG1-KRIT1 PPI [4]; prior SAR studies, read-out: HEG1-KRIT1 PPI inhibition IC50)
1 | O=Cc1c(O)ccc2ccccc12 [Compound 1, 2-hydroxy-1-naphthaldehyde] | > 70,000 fold | 8.14 ± 0.82 µM | did not meaningfully change | 14.4 ± 0.583 M⁻¹ s⁻¹ | 3.31e-05 s⁻¹ | 14.4 M⁻¹ s⁻¹ | 2.29 ± 0.44 µM | 7.34 ± 0.02 | ~100 µM | 3.09 µM | upregulation | upregulation | – | – | –
2 | COc1ccc2c(C=O)c(O)ccc2c1 [Compound 2, 2-hydroxy-6-methoxy-1-naphthaldehyde] | – | 3.96 ± 0.84 µM | – | 14 M⁻¹ s⁻¹ and 14 ± 0.83 M⁻¹ s⁻¹ | 1.54e-05 s⁻¹ | – | 1.1 ± 0.32 µM | 7.42 ± 0.03 | > 100 µM | – | upregulation | upregulation | increased KLF2 and KLF4 expression without reaching statistical significance | increased KLF2 and KLF4 expression without reaching statistical significance | –
3 | O=Cc1ccccc1O [salicylaldehyde, reference compound] | – | – | – | – | – | – | – | – | – | – | – | – | – | – | > 500 µM

The remaining molecules from weak to strong by IC50 (HEG1-KRIT1 PPI [1]), led by results:

Row | difference in affinity, KRIT1 (FP assay) vs N-α-acetyl lysine (HEG1-KRIT1 PPI [1]; Ki for KRIT1 vs Kd for N-α-acetyl lysine) | IC50 (HEG1-KRIT1 PPI [1]) | inhibition of HEG1-KRIT1 PPI upon co-incubation with free lysine (HEG1-KRIT1 PPI [1]; free lysine 50 μM in the assay buffer) | HEG1-KRIT1 PPI Assay kon (HEG1-KRIT1 PPI [1]) | koff (HEG1-KRIT1 PPI [1]) | HEG1-KRIT1 PPI Assay kon (HEG1-KRIT1 PPI [1]; listed as HNA) | Ki (HEG1-KRIT1 PPI [1]) | pKa [2] | SMILES | CC50 at 48 h [3] | IC50 (HEG1-KRIT1 PPI [4]; previously reported data, read-out: HEG1-KRIT1 IC50, flow cytometry assay) | KLF2 expression (KLF2 [5]) | KLF4 expression (KLF4 [6]) | KLF2 mRNA expression (KLF2 [7]) | KLF4 mRNA expression (KLF4 [8]) | IC50 (HEG1-KRIT1 PPI [4]; prior SAR studies, read-out: HEG1-KRIT1 PPI inhibition IC50)
4 | – | 0.69 ± 0.11 µM | – | 108 ± 20.8 M⁻¹ s⁻¹ | 8.81e-05 s⁻¹ | – | 0.82 ± 0.25 µM | 8.08 ± 0.08 | O=Cc1c(O)ccc2cc(-c3ccco3)ccc12 [Compound 5] | 37.1 ± 5.2 µM | – | – | – | significant elevations | significant elevations | –
5 | – | 0.65 ± 0.12 µM | – | 179 ± 26.1 M⁻¹ s⁻¹ | 0.000118 s⁻¹ | – | 0.66 ± 0.17 µM | 6.81 ± 0.05 | C#Cc1ccc2c(C=O)c(O)ccc2c1 [Compound 3] | > 100 µM | – | – | – | significant elevations | significant elevations | –
